According to the NIST ThermoML archive (doi:10.1016/j.fluid.2015.07.030):

Test: refractive index (other wavelength) (dimensionless); xn = mol fraction of the nth substance listed
Conditions: 95.99 kPa, Liquid, Standard Abbe refractometry

OCCOCCOCCO [triethylene glycol] + O
refractive index
Conditions	Wavelength=404.7 nm	Wavelength=435.8 nm	Wavelength=486.1 nm	Wavelength=546.1 nm	Wavelength=587.6 nm	Wavelength=589.3 nm	Wavelength=632.8 nm	Wavelength=644 nm	Wavelength=706.5 nm
298.15 K, x2 = 0	–	–	–	1.45629	1.45447	1.4544	1.45284	1.45249	1.45075
298.15 K, x2 = 0.1056	–	–	–	1.45488	1.45307	1.453	1.45145	1.45109	1.44937
298.15 K, x2 = 0.2069	–	–	–	1.45318	1.45138	1.45132	1.44978	1.44942	1.44768
298.15 K, x2 = 0.3104	–	–	–	1.44993	1.44814	1.44807	1.44653	1.44617	1.44445
298.15 K, x2 = 0.4844	–	–	–	1.44606	1.44428	1.44422	1.44269	1.44234	1.44065
298.15 K, x2 = 0.5016	–	–	1.44841	1.44506	1.44328	1.44322	1.44169	1.44134	1.43966
298.15 K, x2 = 0.5952	–	–	1.44171	1.43842	1.43668	1.43661	1.4351	1.43475	1.43307
298.15 K, x2 = 0.6016	–	–	1.44175	1.43845	1.43673	1.43666	1.43516	1.43481	1.4331
298.15 K, x2 = 0.6788	–	–	1.43522	1.43197	1.43025	1.43019	1.4287	1.42835	1.42668
298.15 K, x2 = 0.7835	–	–	1.42571	1.42254	1.42088	1.42082	1.41936	1.41901	1.41733
298.15 K, x2 = 0.8184	–	–	1.42045	1.41732	1.41568	1.41562	1.41417	1.41382	1.41213
298.15 K, x2 = 0.8473	–	–	1.41417	1.41108	1.40947	1.40941	1.40798	1.40763	1.40596
298.15 K, x2 = 0.8719	–	–	1.40723	1.40421	1.40261	1.40255	1.40113	1.40079	1.39912
298.15 K, x2 = 0.8926	–	–	1.3994	1.39645	1.39488	1.39482	1.39343	1.3931	1.39147
298.15 K, x2 = 0.9106	–	–	1.39379	1.39086	1.3893	1.38924	1.38785	1.38752	1.38588
298.15 K, x2 = 0.9254	–	–	1.3833	1.38042	1.37889	1.37884	1.37748	1.37714	1.37553
298.15 K, x2 = 0.9303	–	–	1.38472	1.38187	1.38035	1.38029	1.37892	1.37859	1.37697
298.15 K, x2 = 0.9391	–	–	1.38066	1.37781	1.37628	1.37622	1.37485	1.37452	1.3729
298.15 K, x2 = 0.951	–	–	1.37385	1.37104	1.36953	1.36947	1.36812	1.3678	1.3662
298.15 K, x2 = 0.9599	–	–	1.36797	1.36514	1.36364	1.36359	1.36225	1.36139	1.36035
298.15 K, x2 = 0.9708	–	–	1.35998	1.35727	1.35581	1.35576	1.35444	1.35412	1.35254
298.15 K, x2 = 0.979	–	–	1.35488	1.35218	1.35072	1.35066	1.34937	1.34905	1.34751
298.15 K, x2 = 0.9867	–	–	1.34888	1.34617	1.34473	1.34467	1.3434	1.34308	1.34153
298.15 K, x2 = 0.9936	–	–	1.34258	1.33995	1.33852	1.33847	1.3372	1.3369	1.3354
303.15 K, x2 = 0	1.4657	1.46213	1.45796	1.45455	1.45273	–	–	–	–
303.15 K, x2 = 0.1056	1.4643	1.46075	1.4566	1.45317	1.45138	–	–	–	–
303.15 K, x2 = 0.2069	1.46262	1.4591	1.45496	1.45155	1.44975	–	–	–	–
303.15 K, x2 = 0.3104	1.45889	1.45541	1.45129	1.4479	1.44612	–	–	–	–
303.15 K, x2 = 0.4844	1.45533	1.4519	1.4478	1.44445	1.44268	–	–	–	–
303.15 K, x2 = 0.5016	1.45432	1.4509	1.44681	1.44347	1.4417	–	–	–	–
303.15 K, x2 = 0.5952	1.44749	1.44412	1.44014	1.43687	1.43513	–	–	–	–
303.15 K, x2 = 0.6016	1.44759	1.44421	1.44025	1.43697	1.43525	–	–	–	–
303.15 K, x2 = 0.6788	1.44091	1.43757	1.4337	1.43047	1.42877	–	–	–	–
303.15 K, x2 = 0.7835	1.4314	1.4281	1.42435	1.42118	1.41951	–	–	–	–
303.15 K, x2 = 0.8184	1.42604	1.4228	1.4191	1.41598	1.41434	–	–	–	–
303.15 K, x2 = 0.8473	1.41954	1.41636	1.41271	1.40964	–	–	–	–	–
303.15 K, x2 = 0.8719	1.41258	1.40944	1.40585	1.40283	–	–	–	–	–
303.15 K, x2 = 0.8926	1.4048	1.40173	1.39821	1.39527	–	–	–	–	–
303.15 K, x2 = 0.9106	1.39915	1.39612	1.39265	1.38973	–	–	–	–	–
303.15 K, x2 = 0.9254	1.38867	1.38572	1.38237	1.37951	–	–	–	–	–
303.15 K, x2 = 0.9303	1.38901	1.38707	1.38371	1.38085	–	–	–	–	–
303.15 K, x2 = 0.9391	1.38606	1.38312	1.37974	1.37691	–	–	–	–	–
303.15 K, x2 = 0.951	1.37929	1.37641	1.37311	1.3703	–	–	–	–	–
303.15 K, x2 = 0.9599	1.37327	1.37045	1.36721	1.36443	–	–	–	–	–
303.15 K, x2 = 0.9708	1.3651	1.36235	1.3592	1.35648	–	–	–	–	–
303.15 K, x2 = 0.979	1.36001	1.3573	1.35419	1.3515	–	–	–	–	–
303.15 K, x2 = 0.9867	1.3539	1.35126	1.34816	1.3455	–	–	–	–	–
303.15 K, x2 = 0.9936	1.3476	1.34502	1.34197	1.33934	–	–	–	–	–
